Test results from patent US8394836B2, “Indoles and their therapeutic use” (Pulmagen Therapeutics (Asthma) Limited, priority 2007, dated 2013).

What was measured:
CRTH2 receptor [1] = biological target: T1, CRTH2 receptor (Homo sapiens, UniProt Q9Y5Y4); assay: CRTH2 radioligand binding assay ([3H]-PGD2 displacement, SPA); conditions: HEK cell membranes expressing the CRTH2 receptor; 1 nM [3H]-PGD2; Ki from IC50 by Cheng-Prusoff
T1 construct: expressed in transfected cells; host or cells: Human embryonic kidney (HEK) cells, used as membranes
T1 sequence (Q9Y5Y4 1-395): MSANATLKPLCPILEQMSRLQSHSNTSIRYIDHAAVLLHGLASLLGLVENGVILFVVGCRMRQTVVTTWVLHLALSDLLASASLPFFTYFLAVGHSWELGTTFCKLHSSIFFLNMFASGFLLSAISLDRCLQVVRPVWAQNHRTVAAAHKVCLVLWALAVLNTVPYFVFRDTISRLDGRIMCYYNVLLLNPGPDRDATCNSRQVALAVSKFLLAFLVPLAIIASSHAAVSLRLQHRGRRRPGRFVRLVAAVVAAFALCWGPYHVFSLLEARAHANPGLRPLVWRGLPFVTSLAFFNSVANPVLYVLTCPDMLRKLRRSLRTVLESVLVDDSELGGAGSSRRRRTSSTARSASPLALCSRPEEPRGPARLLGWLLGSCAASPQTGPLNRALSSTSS
Method: Compounds of the invention were tested using the following biological test method to determine their ability to displace PGD2 from the CRTH2 receptor.
CRTH2 Radioligand Binding Assay
The receptor binding assay is performed in a final volume of 200 μL binding buffer [10 mM BES (pH 7.4), 1 mM EDTA, 10 mM manganese chloride, 0.01% BSA] and 1 nM [^3H]-PGD2 (Amersham Biosciences UK Ltd). Ligands are added in assay buffer containing a constant amount of DMSO (1% by volume). Total binding is determined using 1% by volume of DMSO in assay buffer and non-specific binding is determined using 10 μM of unlabeled PGD2 (Sigma). Human embryonic kidney (HEK) cell membranes (3.5 μg) expressing the CRTH2 receptor are incubated with 1.5 mg wheatgerm agglutinin SPA beads and 1 nM [^3H]-PGD2 (Amersham Biosciences UK Ltd) and the mixture incubated for 3 hours at room temperature. Bound [^3H]-PGD2 is detected using a Microbeta TRILUX liquid scintillation counter (Perkin Elmer). Compound IC50 value is determined using a 6-point dose response curve in duplicate with a semi-log compound dilution series. IC50 calculations are performed using Excel and XLfit (Microsoft), and this value is used to determine a Ki value for the test compound using the Cheng-Prusoff equation.

CRTH2 receptor [2] = biological target: T1, CRTH2 receptor; assay: GTPγS functional assay; assay type: biochemical; conditions: HEK cell membranes expressing the CRTH2 receptor; PGD2 30 nM; [35S]-GTPγS; Ki from IC50 by Cheng-Prusoff
Method: The GTP[…]S Assay is performed in a final volume of […] assay buffer (20 mM HEPES pH 7.4, 10 mM MgCl2, 100 mM NaCl, 10 μg/mL saponin). DMSO concentrations are kept constant at 1% by volume. Human embryonic kidney (HEK) cell membranes (3.5 μg) expressing the CRTH2 receptor are incubated with the compounds for 15 min at 30° C. prior to addition of PGD2 (30 nM final concentration) and GTP (10 μM final concentration). The assay solutions are then incubated for 30 minutes at 30° C., followed by addition of [^35S]-GTPγS (0.1 nM final concentration). The assay plate is than shaken and incubated for 5 minutes at 30° C. Finally, SPA beads (Amersham Biosciences, UK) are added to a final concentration of 1.5 mg/well and the plate shaken and incubated for 30 minute at 30° C. The sealed plate is centrifuged at 1000 g for 10 mins at 30° C. and the bound [^35S]-GTPγS is detected on Microbeta scintillation counter (Perkin Elmer). Compound IC50 value is determined using a 6-point dose response curve in duplicate with a semi-log compound dilution series. IC50 calculations are performed using Excel and XLfit (Microsoft), and this value is used to determine a Ki value for the test compound using the Cheng-Prusoff equation.

Ki (CRTH2 receptor [1]) | Ki (CRTH2 receptor [2]) | Structure (SMILES)
1.5 nM | < 10 nM | Cc1c(Cc2sccc2S(=O)(=O)c2ccc(F)cc2)c2cc(F)ccc2n1CC(=O)O [Example 1, {5-fluoro-3-[3-(4-fluorobenzenesulfonyl)thiophen-2-ylmethyl]-2-methylindol-1-yl}acetic acid]
2.4 nM | < 10 nM | Cc1c(Cc2sccc2S(=O)(=O)c2ccccn2)c2cc(F)ccc2n1CC(=O)O [Example 16, {5-fluoro-2-methyl-3-[3-(pyridine-2-sulfonyl)thiophen-2-ylmethyl]indol-1-yl}acetic acid]
0.6 nM |  | Cc1c(Cc2ccccc2S(=O)(=O)N(C)c2ccccc2)c2cc(F)ccc2n1CC(=O)O [Example 21, {5-fluoro-2-methyl-3-[2-(methylphenylsulfamoyl)benzyl]indol-1-yl}acetic acid]
4.5 nM | < 10 nM | Cc1c(Cc2cccnc2S(=O)(=O)c2ccccc2)c2cc(Cl)ccc2n1CC(=O)O [Example 26, {5-chloro-3-[2-(benzenesulfonyl)pyridine-3-ylmethyl]-2-methylindol-1-yl}acetic acid]
